The text below walks through data of patent US20240317744A1, “Bicyclic Ureas As Kinase Inhibitors” (Incyte Corporation, priority 2023, published 2024).

Some results are limits rather than exact numbers.

Assay [1] deals with catalytic domain (JH1, amino acids 808-1132) of human JAK2 (Homo sapiens, UniProt O60674). Put plainly: JAK2 HTRF Enzyme Activity Assay. It counts as biochemical. Conditions: ATP 30 µM, 60 minutes at 25° C.; read-out: V617F ENZ 30 UM.
For assay [2], the target named is T1, pseudo-kinase domain (JH2, amino-acids 536-812) of human V617F mutant JAK2 (Homo sapiens, UniProt O60674, F794H/V617F/W659A/W777A).
T1 construct: pseudo-kinase domain (JH2, amino-acids 536-812 with 3 surface mutations W659A, W777A, F794H); His (C); purchased BPS Bioscience 79498; host or cells: baculovirus expression system
T1 sequence (O60674 536-812 V617F/W659A/W777A/F794H): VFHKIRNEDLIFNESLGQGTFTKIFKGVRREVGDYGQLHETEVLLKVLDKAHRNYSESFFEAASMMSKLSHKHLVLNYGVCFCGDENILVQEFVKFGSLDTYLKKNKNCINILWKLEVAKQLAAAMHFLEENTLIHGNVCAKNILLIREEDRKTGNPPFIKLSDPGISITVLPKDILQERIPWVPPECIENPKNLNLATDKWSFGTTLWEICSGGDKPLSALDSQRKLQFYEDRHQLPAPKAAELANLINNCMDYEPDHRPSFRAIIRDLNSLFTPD
Briefly: JAK2 LanthaScreen JH2-V617F Binding Assay. Conditions: JAK2 JH2-V617F 0.26 nM, 50 nM tracer, 1 hour at 25° C.; read-out: JH2 BIND V617F. The procedure:
Example C. JAK2 LanthaScreen JH2-V617F Binding Assay
JAK2 JH2-V617F binding assay utilizes pseudo-kinase domain (JH2, amino-acids 536-812 with 3 surface mutations W659A, W777A, F794H) of human V617F mutant JAK2 expressed as C-terminal His-Avi-tagged, biotinylated protein in a baculovirus expression system (BPS Bioscience, Catalog #79498). The assay was conducted in black 384-well polystyrene plates in a final reaction volume of 20 μL. JAK2 JH2-V617F (0.26 nM) was incubated with compounds (100 nL serially diluted in DMSO) in the presence of 50 nM Fluorescent JAK2-JH2 Tracer (MedChem Express Catalog #HY-102055) and 0.25 nM Streptavidin-Tb cryptate (Cisbio Part #610SATLB) in assay buffer (50 mM Tris, pH=7.5, 10 mM MgCl2, 0.01% Brij-35, 0.1% BSA, 1 mM EGTA, 5% Glycerol and 5 mM DTT). Non-specific binding was accessed in the presence of 2 mM ATP. After incubation for 1 hour at 25° C., LanthaScreen signals were read on a PHERAstar FS plate reader (BMG LABTECH). Data was analyzed with IDBS XLfit and GraphPad Prism 5.0 software using a four parameter dose response curve to determine IC50 for each compound.

Chain of catalytic domain (JH1, amino acids 808-1132) of human JAK2 (O60674 808-1132 limits assumed): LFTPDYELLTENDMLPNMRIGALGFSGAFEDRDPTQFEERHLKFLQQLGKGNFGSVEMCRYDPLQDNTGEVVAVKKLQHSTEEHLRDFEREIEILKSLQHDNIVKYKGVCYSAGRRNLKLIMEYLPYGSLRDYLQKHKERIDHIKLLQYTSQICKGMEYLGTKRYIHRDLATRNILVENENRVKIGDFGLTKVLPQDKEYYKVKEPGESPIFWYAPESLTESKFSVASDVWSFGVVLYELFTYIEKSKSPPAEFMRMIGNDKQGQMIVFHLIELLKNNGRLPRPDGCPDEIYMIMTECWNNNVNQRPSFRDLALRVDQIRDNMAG

In the case of `[2H]C([2H])([2H])n1c(=O)n([C@@H]2CC[C@](C)(NC(C)=O)C2)c2cc(Nc3cc(C(C)(C)O)cc(-c4cnc(OCC)s4)n3)ncc21` [Example 153, N-((1S,3R)-3-(6-((6-(2-Ethoxythiazol-5-yl)-4-(2-hydroxypropan-2-yl)pyridin-2-yl)amino)-3-(methyl-d3)-2-oxo-2,3-dihydro-1H-imidazo[4,5-c]pyridin-1-yl)-1-methylcyclopentyl)acetamide], the IC50 in assay [1] is more than 1 µM; in assay [2], not above 0.01 µM.

In the case of `[2H]C([2H])([2H])n1c(=O)n([C@@H]2CC[C@@H](NC(=O)OC)C2)c2cc(Nc3cc(C4CCOCC4)cc(-c4ncc(C(C)(C)O)s4)n3)ncc21` [Example 161, Methyl ((1R,3R)-3-(6-((6-(5-(2-hydroxypropan-2-yl)thiazol-2-yl)-4-(tetrahydro-2H-pyran-4-yl)pyridin-2-yl)amino)-3-(methyl-d3)-2-oxo-2,3-dihydro-1H-imidazo[4,5-c]pyridin-1-yl)cyclopentyl)carbamate], the IC50 in assay [1] is more than 1 µM; in assay [2], not above 0.01 µM.

With `[2H]C([2H])([2H])n1c(=O)n([C@@H]2CC[C@@H](NC(=O)OC)C2)c2cc(Nc3ccc4c(n3)c(-c3cnn(C(F)(F)F)c3)cn4C3CCOCC3)ncc21` [Example 109, Methyl ((1R,3R)-3-(3-(methyl-d3)-2-oxo-6-((1-(tetrahydro-2H-pyran-4-yl)-3-(1-(trifluoromethyl)-1H-pyrazol-4-yl)-1H-pyrrolo[3,2-b]pyridin-5-yl)amino)-2,3-dihydro-1H-imidazo[4,5-c]pyridin-1-yl)cyclopentyl)carbamate], the IC50 in assay [1] was more than 1 µM; in assay [2], not above 0.01 µM.

As to `[2H]C([2H])([2H])n1c(=O)n([C@@H]2CC[C@](C)(NC(C)=O)C2)c2cc(Nc3cc(C(C)(C)O)cc(-c4cnc(C(F)(F)F)s4)n3)ncc21` [Example 146, N-((1S,3R)-3-(6-((4-(2-Hydroxypropan-2-yl)-6-(2-(trifluoromethyl)thiazol-5-yl)pyridin-2-yl)amino)-3-(methyl-d3)-2-oxo-2,3-dihydro-1H-imidazo[4,5-c]pyridin-1-yl)-1-methylcyclopentyl)acetamide], the IC50 in assay [1] was more than 1 µM; in assay [2] it was not above 0.01 µM.

As for `[2H]C([2H])([2H])n1c(=O)n(C23CCC(NC(C)=O)(CC2)CC3)c2cc(Nc3cc(C(C)(C)O)cc(-c4ncc(C(F)(F)F)s4)n3)ncc21` [Example 140, N-(4-(6-((4-(2-Hydroxypropan-2-yl)-6-(5-(trifluoromethyl)thiazol-2-yl)pyridin-2-yl)amino)-3-(methyl-d3)-2-oxo-2,3-dihydro-1H-imidazo[4,5-c]pyridin-1-yl)bicyclo[2.2.2]octan-1-yl)acetamide], the IC50 in assay [1] is more than 1 µM; in assay [2], not above 0.01 µM.

As for `[2H]C1(NC(=O)OC)CC[C@@H](n2c(=O)n(C([2H])([2H])[2H])c3cnc(Nc4ccc5c(n4)c(-c4cnn(C(F)(F)F)c4)nn5CC(C)(C)O)cc32)C1` (single isomer, unassigned) [Example 124], the figures for the IC50 in assay [1] and in assay [2] were more than 1 µM and not above 0.01 µM, respectively.

Regarding `[2H]C1(NC(=O)OC)CC[C@@H](n2c(=O)n(C([2H])([2H])[2H])c3cnc(Nc4ccc5c(n4)c(-c4cnn(C(F)(F)F)c4)cn5C4([2H])CCOCC4)cc32)C1` (stereo partly drawn) [Example 112, Methyl ((3R)-3-(3-(methyl-d3)-2-oxo-6-((1-(tetrahydro-2H-pyran-4-yl-4-d)-3-(1-(trifluoromethyl)-1H-pyrazol-4-yl)-1H-pyrrolo[3,2-b]pyridin-5-yl)amino)-2,3-dihydro-1H-imidazo[4,5-c]pyridin-1-yl)cyclopentyl-1-d)carbamate], the IC50 in assay [1] is more than 1 µM; in assay [2], not above 0.01 µM.
